Data on 18 molecules can be found in patent US5459143A, “N,N-disubstituted piperazines” (Bayer Aktiengesellschaft, priority 1993, dated 1995).

Molecules are shown by their SMILES.

Assay [1] concerns monocyte-free human T cells. Description: Inhibition of 5-HT-dependent T cell proliferation. The class given is cell-based. The following applies: PWM (1:200) and 5-HT (100 μM) stimulated T cells, 3H-thymidine incorporation on day 7, tested at 33 μM-0.1 μM. From the text: The in vitro activity of the compounds according to the invention results from their capability to inhibit T cell proliferation, which is previously stimulated by serotonin.
Inhibition of 5-HT-dependent T cell proliferation
Peripheral mononuclear blood cells (PBMC) are obtained from the buffy coat of the blood of healthy subjects. After isolation by means of isolymph gradients (Pharmacia), the PBMC are washed twice and used directly. Purified T cells are obtained by E rosette formation with sheep erythrocytes [cf. Blue, M. -L., J. F. Daley, H. Levine, K. A. Craig and S. F. Schlossmann, 1986, Biosynthesis and surface expression of T8 by peripheral blood T4+ cells in vitro, J. Immunol. 137, 1202]. Monocytes are partially removed by adhesion to tissue culture plates or flasks. PBMC, T cells or purified T cells (depleted in monocytes) at 5×10^5 /ml, 100 μl/well are cultured in RPMI 1640 medium with 10% fetal calf serum (GIBCO) and L-glutamine in 96-well microculture plates (Becton-Dickinson) under a 5% CO2 atmosphere at 37° C. for 7 days. The cultures are treated with 1 μCi of ^3 H-thymidine for 6 h on the 7th day and collected on filter paper, and the incorporated radioactivity is determined by means of liquid scintillation counting.
The test substances are dissolved in 10 mM HCl in order to achieve a final concentration of 1 mM in each case. The compounds are diluted serially 3× with medium in order to obtain a final concentration between 33 μM-0.1 μM. PWM (1:200, pokeweed mitogen) and 5-HT (100 μM, serotonin), which contain the test substances, are added to monocyte-free human T cells. The positive control (maximum proliferation) is obtained from cultures containing T cells, PWM and 5-HT. The negative control (minimal proliferation) is obtained from cultures containing T cells and PWM without 5-HT. The inhibitory activity of the test substances is expressed as the IC50 in μM.
On the technique in general: Uptake of a labelled nucleoside into DNA is a usual measure of proliferation.

Assay [2] deals with Lewis rats. Description: Adjuvant arthritis model in the rat. Format: in vivo. The following applies: Freund's adjuvant arthritis, malleolus diameter day 16 vs day 0, dosing on days 0, 1, 2, 5, 7, 9, 12 and 14. How it is done:
Adjuvant arthritis model in the rat
Freund's adjuvant (FA) is prepared by addition of 10 mg/ml of heat-killed Mycobacterium butyricum to extra-heavy mineral oil. Lewis rats receive a 0.1 ml injection of FA (1 mg/animal) subcutaneously in the right hind paw. An acute inflammation takes place there, which is characterized by reddening, edema and a predominant neutrophilic cell infiltration (primary reaction). Tumescent areas in the treated paw on day 5 are followed between day 10-12 by an increase in the swelling (chronic inflammatory reaction) and the occurrence of a swelling in the opposite untreated paw (secondary immune response).
The cell infiltration of the chronic inflammation and the second immune response are mainly mononuclear, which indicates the presence of T-cell mediated immunity. The animals are observed daily, and the swelling is measured in millimeters on days 12 and 16 using a hand-adjustable micrometer. The swelling reaches its peak on the 16th day, on which the animals are sacrificed and tissue samples are taken for histological evaluation.
The extent of the swelling is determined by calculation of the greatest difference in the malleolus diameter between the 16th and the 0th day.
The animals receive the compounds according to the invention in a suspension of 5% polyethylene glycol and 0.5% Tween 80 in phosphate buffer solution p.o. or i.p. on days 0, 1, 2, 5, 7, 9, 12 and 14 [cf. for this purpose L. Sokoloff, 1984, Int. Rev. Exp. Pathol. 26, 107; M. E. J. Bittingham et al., 1989, J. Exp. Med. 171, 339; K. M. Connolly et al., 1989, Agents and Actions 27, 328].

What is called IC50 is the concentration at which inhibition is half-maximal. Read a low IC50 as greater potency. The molecule `O=C1C2C3c4ccccc4C(c4ccccc43)C2C(=O)N1CCCN1CCN(C(c2ccc(F)cc2)c2ccc(F)cc2)CC1` (centres unmarked) [Example 1] returned an IC50 in assay [1] above 10 µM. As to `O=C1C2C3c4ccccc4C(c4ccccc43)C2C(=O)N1CCCN1CCN(c2ncccn2)CC1` (centres unmarked) [Example 3], the IC50 in assay [1] was above 10 µM. `O=C1C2C3c4ccccc4C(c4ccccc43)C2C(=O)N1CCCN1CCN(C(c2ccccc2)c2ccccc2)CC1` (centres unmarked) [Example 4] displayed an IC50 in assay [1] above 10 µM. As to `O=C1C2C3c4ccccc4C(c4ccccc43)C2C(=O)N1CCCN1CCN(CCc2ccccc2C(F)(F)F)CC1` (centres unmarked) [Example 5], the “Inhibition of the swelling in % after administration of 10 mg/kg i.p.” value in assay [2] is reported as 24%. This molecule came in with an IC50 in assay [1] of 2 µM. As to `CC(C)(C)c1ccc(CN2CCN(CCCN3C(=O)C4C5c6ccccc6C(c6ccccc65)C4C3=O)CC2)cc1` (centres unmarked) [Example 6], in assay [2], the “Inhibition of the swelling in % after administration of 10 mg/kg i.p.” value is given as 24%. The IC50 in assay [1] was determined as 3 µM.

Regarding `O=C1C2C3c4ccccc4C(c4ccccc43)C2C(=O)N1CCCN1CCN(C(c2ccccc2)c2ccc(Cl)cc2)CC1` (centres unmarked) [Example 8], in assay [1], it took 50 µM to reach half-maximal inhibition (IC50).

In assay [1], `O=C1C2C3c4ccccc4C(c4ccccc43)C2C(=O)N1CCCN1CCN(C2CCCC2)CC1` (centres unmarked) [Example 10] returned an IC50 of 30 µM. Take `Fc1ccc(C(c2ccc(F)cc2)N2CCN(CCCN3CC4C5c6ccccc6C(c6ccccc65)C4C3)CC2)cc1` (centres unmarked) [Example 13]: the “Inhibition of the swelling in % after administration of 10 mg/kg i.p.” value in assay [2] amounted to 2%. `c1cnc(N2CCN(CCCN3CC4C5c6ccccc6C(c6ccccc65)C4C3)CC2)nc1` (centres unmarked) [Example 15] came in with an IC50 in assay [1] of 2 µM. This lies in the single-digit micromolar range. `FC(F)(F)c1ccccc1CCN1CCN(CCCN2CC3C4c5ccccc5C(c5ccccc54)C3C2)CC1` (centres unmarked) [Example 16]: in assay [2], the “Inhibition of the swelling in % after administration of 10 mg/kg i.p.” value is 13%. In assay [1], the IC50 amounted to 5 µM.

Molecule `c1cnc(N2CCN(CCCCN3CC4C5c6ccccc6C(c6ccccc65)C4C3)CC2)nc1` (centres unmarked) [Example 17] gave an IC50 in assay [1] above 10 µM.

Turning to `CC(C)(C)c1ccc(CN2CCN(CCCN3CC4C5c6ccccc6C(c6ccccc65)C4C3)CC2)cc1` (centres unmarked) [Example 18], the IC50 in assay [1] came out at 2 µM. Still for that read-out and setting: for `c1ccc2c(c1)C1c3ccccc3C2C2CN(CCCN3CCN(C4CCCCCC4)CC3)CC12` (centres unmarked) [Example 19] the value was 5 µM. For `CC12c3ccccc3C(c3ccccc31)C1CN(CCCN3CCN(C(c4ccccc4)c4ccccc4)CC3)CC12` (centres unmarked) [Example 20], the “Inhibition of the swelling in % after administration of 10 mg/kg i.p.” value in assay [2] was 79%. This molecule came in with an IC50 in assay [1] of 0.5 µM. The like results for `c1ccc(C(c2ccccc2)N2CCN(CCCN3CC4C5c6ccccc6C(c6ccccc65)C4C3)CC2)cc1` (centres unmarked) [Example 21] were, in that order, 0.5% and 0.5 µM. Consider `Fc1ccc(C(CCCN2CCN(CCCN3CC4C5c6ccccc6C(c6ccccc65)C4C3)CC2)c2ccc(F)cc2)cc1` (centres unmarked) [Example 23], for which, in assay [1], the IC50 was 0.1 µM.

In assay [1], `c1ccc2c(c1)C1c3ccccc3C2C2CN(CCCN3CCN(C4CCCC4)CC3)CC12` (centres unmarked) [Example 24] had an IC50 of 6 µM. `Clc1ccc(C(c2ccccc2)N2CCN(CCCN3CC4C5c6ccccc6C(c6ccccc65)C4C3)CC2)cc1` (centres unmarked) [Example 26] yielded an IC50 in assay [1] of 1 µM. This IC50 lies about 6-fold lower than the previous one.
